The record followed here is patent US11530186B2, “Inhibitors for the β-catenin / T-cell factor protein-protein interaction” (H. LEE MOFFITT CANCER CENTER AND RESEARCH INSTITUTE, INC., priority 2018, dated 2022).

This assay deals with T1, β-catenin/Tcf protein-protein interaction (Homo sapiens, UniProt P35222).
T1 construct: Wild-type β-catenin (residues 138-781) were cloned into a pET-28b vector; 6×histidine (C); made in house; host or cells: E. coli BL21 DE3
T1 sequence (P35222 138-781): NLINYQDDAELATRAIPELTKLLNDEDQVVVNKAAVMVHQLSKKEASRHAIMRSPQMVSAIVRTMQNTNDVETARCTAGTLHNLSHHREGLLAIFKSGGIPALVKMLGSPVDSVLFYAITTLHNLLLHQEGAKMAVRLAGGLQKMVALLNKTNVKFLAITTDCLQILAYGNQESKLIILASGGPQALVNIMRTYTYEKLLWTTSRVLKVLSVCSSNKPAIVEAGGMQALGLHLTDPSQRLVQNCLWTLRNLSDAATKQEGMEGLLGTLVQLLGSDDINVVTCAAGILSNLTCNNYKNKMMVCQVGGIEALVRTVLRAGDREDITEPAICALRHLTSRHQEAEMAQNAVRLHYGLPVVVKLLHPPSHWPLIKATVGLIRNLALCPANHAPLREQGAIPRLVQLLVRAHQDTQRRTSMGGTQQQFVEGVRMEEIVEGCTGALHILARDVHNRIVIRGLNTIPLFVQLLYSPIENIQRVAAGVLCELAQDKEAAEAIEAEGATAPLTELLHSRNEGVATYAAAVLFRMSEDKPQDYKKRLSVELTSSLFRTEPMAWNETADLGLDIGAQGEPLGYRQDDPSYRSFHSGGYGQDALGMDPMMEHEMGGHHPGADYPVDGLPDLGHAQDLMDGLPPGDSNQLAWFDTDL
Nature of the assay: FP competitive inhibition assay. The format is binding. As to the method:
Protein Expression and Purification. Wild-type β-catenin (residues 138-781) were cloned into a pET-28b vector carrying a C-terminal 6×histidine (Novagen) and transformed into E. coli BL21 DE3 (Novagen). Cells were cultured in LB medium with 30 μg/mL kanamycin until the OD600 was approximately 0.8, and then protein expression was induced with 400 μM of IPTG at 20° C. overnight. Cells were lysed by sonication. The proteins were purified by Ni-NTA affinity chromatography (30210, Qiagen) and dialyzed against a buffer containing 20 mM of Tris (pH 8.8), 100 mM NaCl, 10% glycerol, and 3 mM DTT. The purity of β-catenin was set to >95% as determined by SDS-PAGE gel analysis. Native non-denaturing gel electrophoresis experiment and the thermal-shift assay on an iCycler iQ Real Time Detection System (Bio-Rad) were performed for each purified protein. In the thermal shift assay, protein unfolding was evaluated through measuring the fluorescence changes of fluorescent dye Sypro Orange with purified β-catenin proteins. A temperature increment of 1° C./min was applied to monitor protein stability and detect protein aggregation. CD spectra were measured on a J-815 spectropolarimeter (Jasco). All spectra were recorded using a 1 mm path-length quartz cell. The CD spectra were averaged over three scans, and the wavelength was scanned from 260 to 190 nm in step of 1 nm. All spectra were recorded at room temperature, and the baseline was corrected by subtracting the CD spectra of a blank control containing all of the substances except protein. Samples were prepared at a concentration around 1-5 μM in a buffer of 10 mM potassium phosphate and 100 mM potassium fluoride at pH 7.0 to ensure that the transmission of light through the sample was not restricted. All proteins were stable, and no aggregation was observed under storage or assay conditions. Proteins were aliquoted and stored at −80° C. C-terminally fluorescein-labeled human Tcf4 (residues 7-51) was synthesized and HPLC purified with purity >95%. The structures were validated by LC/MS (liquid chromatography/mass spectrometry).
FP Assays. The procedures for the FP competitive inhibition assays have been described previously (Zhang, M.; Huang, Z.; Yu, B.; Ji, H. New homogeneous high-throughput assays for inhibitors of β-catenin/Tcf protein-protein interactions Anal. Biochem. 2012, 424, 57-63; Zhang, M.; Catrow, J. L.; Ji, H. High-throughput selectivity assays for small-molecule inhibitors of β-catenin/T-cell factor protein-protein interactions. ACS Med. Chem. Lett. 2013, 4, 306-311). Briefly, all of the tested compounds were prepared as 10 mM DMSO stocks. In the primary screen, the concentrations of the compounds and DMSO were set to 50 μM and 1% (v/v). Only the compounds which FP signal decreases were greater than 50% in the single-point β-catenin/Tcf assay were evaluated by counter screen. […] In the FP competitive inhibition assay, 10 nM human β-catenin and 2.5 nM of C-terminally fluorescein-labeled human Tcf4 were incubated in an assay buffer of 137 mM NaCl, 2.7 mM KCl, 10 mM Na2HPO4, 2 mM KH2PO4, 100 μg/mL of bovine γ-globulin, and 0.01% Triton-X100 for 15 min at 4° C. Bovine γ-globulin and Triton-X100 were included in the assay buffer to decrease the likelihood of compound acting by aggregate formation. Different concentrations of the tested compounds in the assay buffer were added to each test plate to make a final volume of 100 μL. Each assay plate was covered black and gently mixed on an orbital shaker at 4° C. for 1.5 h to reach equilibrium before the polarization values were read. The IC50 value was determined by nonlinear least-square analysis of GraphPad Prism 5.0. The Ki values were derived (Nikolovska-Coleska, Z.; Wang, R.; Fang, X.; Pan, H.; Tomita, Y.; Li, P.; Roller, P. P.; Krajewski, K.; Saito, N. G.; Stuckey, J. A.; Wang, S. Development and optimization of a binding assay for the XIAP BIR3 domain using fluorescence polarization. Anal. Biochem. 2004, 332, 261-273). […]

Setting [1] is: Assay 1, mean ± SD (n = 3), read-out: Ki ± SD, Assay 1.
Setting [2] is: Assay 2, mean ± SD (n = 3), read-out: Ki ± SD, Assay 2.

Structures are written as SMILES. Like-named read-outs stand apart in the source and are kept apart here.

As for `O=C(O)c1cccc(CCc2nn[nH]n2)c1` [Compound 1, 3-(2-(2H-tetrazol-5-yl)ethyl)benzoic acid], the Ki under setting [1] turned out to be 990 ± 36 µM.
Consider `Cc1cn(CCc2nn[nH]n2)c2ccccc12` [Compound 2, 1-(2-(2H-tetrazol-5-yl)ethyl)-3-methyl-1H-indole], for which the Ki by setting is: under setting [1], 348 ± 1.3 µM; under setting [2], 780 ± 100 µM.
Take `Cc1c(C)n(CCc2nn[nH]n2)c2ccccc12` [Compound 3, 1-(2-(2H-tetrazol-5-yl)ethyl)-2,3-dimethyl-1H-indole]: the Ki under setting [1] was 250 ± 1.2 µM.
Regarding `O=C(O)c1ccc2c(ccn2CCc2nn[nH]n2)c1` [Compound 4, 1-(2-(2H-tetrazol-5-yl)ethyl)-1H-indole-5-carboxylic acid], the Ki under setting [1] was 550 ± 56 µM.
The same measure, in the same setting: in the case of `O=C(O)c1ccc2c(c1)c(CCc1ccccc1)cn2CCc1nn[nH]n1` [Compound 5, 1-(2-(2H-tetrazol-5-yl)ethyl)-3-phenethyl-1H-indole-5-carboxylic acid] it was 62 ± 12 µM.
As for `O=C(O)c1ccc2c(c1)c(CCc1ccc(Cl)cc1)cn2CCc1nn[nH]n1` [Compound 6, 1-(2-(2H-tetrazol-5-yl)ethyl)-3-(4-chlorophenethyl)-1H-indole-5-carboxylic acid], the Ki amounted to 26 ± 2.3 µM under setting [1] and 19 ± 2.5 µM under setting [2].
As for `Cc1ccc(CCc2cn(CCc3nn[nH]n3)c3ccc(C(=O)O)cc23)cc1` [Compound 7, 1-(2-(2H-tetrazol-5-yl)ethyl)-3-(4-methylphenethyl)-1H-indole-5-carboxylic acid], under setting [1], the Ki was 27 ± 4 µM.
Still for that read-out and setting: in the case of `COc1ccc(CCc2cn(CCc3nn[nH]n3)c3ccc(C(=O)O)cc23)cc1` [Compound 8] it was 78 ± 10 µM; in that of `O=C(O)c1ccc2c(c1)c(CCc1ccc(C(F)(F)F)cc1)cn2CCc1nn[nH]n1` [Compound 9, 1-(2-(2H-tetrazol-5-yl)ethyl)-3-(4-(trifluoromethyl)phenethyl)-1H-indole-5-carboxylic acid], 31 ± 5.9 µM.
Same read-out and setting: as for `O=C(O)c1ccc2c(c1)c(CCc1ccc(OC(F)(F)F)cc1)cn2CCc1nn[nH]n1` [Compound 10, 1-(2-(2H-tetrazol-5-yl)ethyl)-3-(4-(trifluoromethoxy)phenethyl)-1H-indole-5-carboxylic acid], the figure is 22 ± 3.1 µM.
With `O=C(O)c1ccc2c(c1)c(CCc1cccc(Cl)c1)cn2CCc1nn[nH]n1` [Compound 11, 1-(2-(2H-tetrazol-5-yl)ethyl)-3-(3-chlorophenethyl)-1H-indole-5-carboxylic acid], the Ki was 27 ± 4 µM under setting [1] and 12 ± 2.2 µM under setting [2].
In the same order, the values of `O=C(O)c1ccc2c(c1)c(CCc1ccc(Cl)c(Cl)c1)cn2CCc1nn[nH]n1` [Compound 12, 1-(2-(2H-tetrazol-5-yl)ethyl)-3-(3,4-dichlorophenethyl)-1H-indole-5-carboxylic acid] are 6.6 ± 0.44 µM and 41 ± 1.5 µM.
In the case of `O=C(O)c1ccc2c(c1)c(CCc1ccc3ccccc3c1)cn2CCc1nn[nH]n1` [Compound 13, 1-(2-(2H-tetrazol-5-yl)ethyl)-3-(2-(naphthalen-2-yl)ethyl)-1H-indole-5-carboxylic acid], under setting [1], the Ki was determined as 6.5 ± 1 µM.
With `O=C(O)c1ccc2c(c1)c(CCc1cccc3ccccc13)cn2CCc1nn[nH]n1` [Compound 14, 1-(2-(2H-tetrazol-5-yl)ethyl)-3-(2-(naphthalen-1-yl)ethyl)-1H-indole-5-carboxylic acid], the Ki is, setting by setting: under setting [1], 4.6 ± 0.36 µM; under setting [2], 3.5 ± 0.71 µM.
In the same order, the values of `O=C(O)c1ccc2c(c1)c(CCc1nccs1)cn2CCc1nn[nH]n1` [Compound 15, 1-(2-(2H-tetrazol-5-yl)ethyl)-3-(2-(thiazol-2-yl)ethyl)-1H-indole-5-carboxylic acid] are 29 ± 1.5 µM and above 51 µM.
In the same order, the values of `O=C(O)c1ccc2c(c1)c(CCc1ccncc1)cn2CCc1nn[nH]n1` [Compound 16, 1-(2-(2H-tetrazol-5-yl)ethyl)-3-(2-(pyridin-4-yl)ethyl)-1H-indole-5-carboxylic acid] are 18 ± 1.6 µM and 18 ± 0.67 µM.
As to `Cc1ccc(CCc2cn(CCc3nn[nH]n3)c3ccc(C(=O)O)cc23)nc1` [Compound 17, 1-(2-(2H-tetrazol-5-yl)ethyl)-3-(2-(5-methylpyridin-2-yl)ethyl)-1H-indole-5-carboxylic acid], the Ki under setting [1] was 32 ± 3.9 µM.
For the molecule `O=C(O)c1ccc2c(c1)c(CCc1ccc(-c3ccccc3)cc1)cn2CCc1nn[nH]n1` [Compound 18, 1-(2-(2H-tetrazol-5-yl)ethyl)-3-(2-([1,1′-biphenyl]-4-yl)ethyl)-1H-indole-5-carboxylic acid], the Ki runs as follows: under setting [1], 1.1 ± 0.12 µM; under setting [2], 1.6 ± 0.23 µM.
With `O=C(O)c1ccc2c(c1)c(CCc1ccc(N3CCOCC3)cc1)cn2CCc1nn[nH]n1` [Compound 19, 1-(2-(2H-tetrazol-5-yl)ethyl)-3-(4-morpholinophenethyl)-1H-indole-5-carboxylic acid], under setting [1], the inhibition constant Ki was above 51 µM.
Consider `O=C(O)c1ccc2c(c1)c(CCC1CCOCC1)cn2CCc1nn[nH]n1` [Compound 21, 1-(2-(2H-tetrazol-5-yl)ethyl)-3-(2-(tetrahydro-2H-pyran-4-yl)ethyl)-1H-indole-5-carboxylic acid], for which the Ki is, setting by setting: under setting [1], 6.6 ± 0.28 µM; under setting [2], 7.6 ± 0.65 µM; (Assay 3, mean ± SD (n = 3), read-out: Ki ± SD, Assay 3) 10 ± 0.95 µM; (Assay 4, mean ± SD (n = 3), read-out: Ki ± SD, Assay 4) 5.7 ± 1.1 µM.
As to `O=C(O)c1ccc2c(c1)c(CCc1ccc3c(c1)OCCO3)cn2CCc1nn[nH]n1` [Compound 22, 1-(2-(2H-tetrazol-5-yl)ethyl)-3-(2-(2,3-dihydrobenzo[b][1,4]dioxin-6-yl)ethyl)-1H-indole-5-carboxylic acid], under setting [1], the Ki is 35 ± 1.2 µM.
`O=C(O)CCn1cc(CCc2ccc(Cl)cc2)c2cc(C(=O)O)ccc21` [Compound 23, 1-(2-carboxyethyl)-3-(4-chlorophenethyl)-1H-indole-5-carboxylic acid]: the Ki under setting [1] stood at 94 ± 9.6 µM.
Still for that read-out and setting: in the case of `Cc1ccc(CCc2cn(CCC(=O)O)c3ccc(C(=O)O)cc23)cc1` [Compound 24, 1-(2-carboxyethyl)-3-(4-methylphenethyl)-1H-indole-5-carboxylic acid] it was 77 ± 4.5 µM.

The Ki is a measure of affinity in units of concentration, obtained from inhibition or displacement.
